Laboratory results as given in ChEMBL document CHEMBL1201862, “PubChem BioAssay data set” (2004).
The source made the active and inactive calls.

Experiments:
Ephrin type-A receptor 4 = Ephrin type-A receptor 4 (Mus musculus, UniProt Q03137); test: inhibitors of EphA4 binding to KYL peptide, primary screen, biochemical, colorimetric, mouse EphA4 (AID 689); type: functional
Cytochrome P450 2C9 = Cytochrome P450 2C9 (Homo sapiens, UniProt P11712)
[1] = inhibitors of clade B AD8 Env fusion, dose response, cell-based, cherry-pick (AID 652062); type: functional;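 also: luciferase signal from cell-cell fusion driven by HIV-1 clade B AD8 Env; potency is for inhibitors of fusion seen as a drop in luminescence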
[2] = inhibitors of HIV Env-driven cell fusion, dose response, cherry-pick (AID 652057); type: functional, cell-based
[3] = HIV-1 Env-mediated cell fusion inhibitors, dose response, CCR5-tropic Env (AID 2279); type: functional
Aminopeptidase N = biological target: T1, Aminopeptidase N (Plasmodium falciparum FcB1/Columbia, UniProt O96935); test: P. falciparum M1AAP inhibitors, biochemical, fluorogenic H-Leu-NHMec substrate, 1536-well (AID 1445); design: species or system Plasmodium falciparum 3D7, 3D7
T1 sequence (O96935 whole entry): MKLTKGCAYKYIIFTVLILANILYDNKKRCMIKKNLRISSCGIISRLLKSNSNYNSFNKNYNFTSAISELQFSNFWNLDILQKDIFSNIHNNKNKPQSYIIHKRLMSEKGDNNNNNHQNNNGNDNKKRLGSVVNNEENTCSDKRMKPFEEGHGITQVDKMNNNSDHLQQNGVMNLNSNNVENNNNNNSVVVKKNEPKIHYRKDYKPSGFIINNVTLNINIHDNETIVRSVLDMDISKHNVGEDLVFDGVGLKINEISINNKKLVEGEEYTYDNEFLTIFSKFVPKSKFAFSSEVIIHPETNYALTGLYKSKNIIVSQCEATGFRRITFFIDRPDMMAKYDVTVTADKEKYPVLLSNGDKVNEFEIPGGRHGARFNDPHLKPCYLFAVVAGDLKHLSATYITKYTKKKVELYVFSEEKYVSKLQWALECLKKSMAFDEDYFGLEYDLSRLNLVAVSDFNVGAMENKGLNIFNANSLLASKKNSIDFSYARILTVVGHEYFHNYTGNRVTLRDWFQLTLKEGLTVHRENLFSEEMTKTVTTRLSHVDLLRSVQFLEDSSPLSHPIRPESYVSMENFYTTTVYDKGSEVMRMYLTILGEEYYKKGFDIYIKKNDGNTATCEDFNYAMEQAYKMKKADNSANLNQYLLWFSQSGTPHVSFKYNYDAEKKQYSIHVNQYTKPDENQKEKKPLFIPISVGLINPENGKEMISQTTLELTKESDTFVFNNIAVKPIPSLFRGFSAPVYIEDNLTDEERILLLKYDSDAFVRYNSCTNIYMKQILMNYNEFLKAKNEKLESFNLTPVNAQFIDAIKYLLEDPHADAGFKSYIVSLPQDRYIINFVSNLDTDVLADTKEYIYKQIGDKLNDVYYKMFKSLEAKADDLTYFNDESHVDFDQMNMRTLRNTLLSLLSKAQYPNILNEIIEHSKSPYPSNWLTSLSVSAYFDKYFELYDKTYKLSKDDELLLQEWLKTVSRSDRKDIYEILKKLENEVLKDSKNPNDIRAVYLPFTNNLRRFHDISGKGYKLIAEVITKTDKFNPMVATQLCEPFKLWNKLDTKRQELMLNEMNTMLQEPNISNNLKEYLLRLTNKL

[4] = off-target signal loss in HeLa-CEM21 co-culture – HeLa F-luc CTL cells, cherry-picked, counter-screen for HIV-1 Env fusion inhibitor project, dose response (AID 652040); type: functional, cell-based;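 also: potency for signal decrease marking cytotoxic or nonspecific inhibition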
[5] = biological target: T2, High affinity choline transporter 1 (Homo sapiens, UniProt Q9GZV3); test: CHT inhibitors, dose response, cell-based, 5-point CRC, membrane potential dye (AID 504840); type: functional
T2 sequence (Q9GZV3 whole entry): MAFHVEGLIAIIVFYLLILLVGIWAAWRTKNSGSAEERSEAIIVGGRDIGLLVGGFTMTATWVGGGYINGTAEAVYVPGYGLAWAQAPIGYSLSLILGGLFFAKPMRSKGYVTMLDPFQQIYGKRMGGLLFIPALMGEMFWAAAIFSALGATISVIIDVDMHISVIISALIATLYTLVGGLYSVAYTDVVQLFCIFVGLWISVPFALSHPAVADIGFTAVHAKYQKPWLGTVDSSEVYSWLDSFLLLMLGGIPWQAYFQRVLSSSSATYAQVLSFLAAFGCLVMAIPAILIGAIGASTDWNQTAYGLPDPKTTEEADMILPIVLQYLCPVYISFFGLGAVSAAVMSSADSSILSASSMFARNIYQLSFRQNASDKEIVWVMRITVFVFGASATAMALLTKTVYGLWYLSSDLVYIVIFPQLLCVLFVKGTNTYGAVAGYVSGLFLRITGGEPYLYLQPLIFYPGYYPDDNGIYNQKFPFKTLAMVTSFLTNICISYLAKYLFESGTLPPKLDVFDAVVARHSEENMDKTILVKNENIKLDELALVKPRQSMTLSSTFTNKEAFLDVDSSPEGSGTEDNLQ

[6] = Luminescence Cell-Based Dose Retest to Confirm Inhibitors of Cancer Stem Cells. [Related pubchem assays (depositor defined):AID2717, AID2721]; type: functional; conditions: Homo sapiens
[7] = Luminescence Cell-Based Dose Response to Identify Activators of 5'UTR Stem-Loop Driven Prion Protein mRNA Translation in H4-C Neuroglioblastoma Cells. [Related pubchem assays: 1829 (Project Summary), 1814 (Primary HTS)]; type: functional
[8] = Luminescence Cell-Based Dose Response to Identify Activators of Luciferase Translation or Activity in H4-C Neuroglioblastoma Cells. [Related pubchem assays: 1829 (Project Summary), 1814 (Primary HTS)]; type: functional
H4 = test: Luminescence Cell-Based Dose Response HTS to Identify Activators of 5'UTR Stem-Loop Driven Prion Protein mRNA Translation in H4 Neuroglioblastoma Cells. [Related pubchem assays: 1829 (Project Summary), 1814 (Primary HTS)]; type: functional; conditions: Homo sapiens
[9] = Luminescence Cell-Based Dose Confirmation HTS to Identify Activators of 5'UTR Stem-Loop Driven Alpha-Synuclein mRNA Translation in H4 Neuroglioblastoma Cells. [Related pubchem assays: 1829 (Project Summary), 1814 (Primary HTS)]; type: functional
[10] = biological target: T3, Oxysterols receptor LXR-beta (Homo sapiens, UniProt P55055); type: functional, cell-based;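 also: Cell-based luminescence dose-response assay of agonist activity at LXR, run as a confirmatory counterscreen to a daf-12 agonist screen; HEK293 cells with Gal4-LXR fusion and GAL4-driven luciferase reporter; agonist potency from rising luciferase signal of a Gal4-LXR reporter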
T3 sequence (P55055 whole entry): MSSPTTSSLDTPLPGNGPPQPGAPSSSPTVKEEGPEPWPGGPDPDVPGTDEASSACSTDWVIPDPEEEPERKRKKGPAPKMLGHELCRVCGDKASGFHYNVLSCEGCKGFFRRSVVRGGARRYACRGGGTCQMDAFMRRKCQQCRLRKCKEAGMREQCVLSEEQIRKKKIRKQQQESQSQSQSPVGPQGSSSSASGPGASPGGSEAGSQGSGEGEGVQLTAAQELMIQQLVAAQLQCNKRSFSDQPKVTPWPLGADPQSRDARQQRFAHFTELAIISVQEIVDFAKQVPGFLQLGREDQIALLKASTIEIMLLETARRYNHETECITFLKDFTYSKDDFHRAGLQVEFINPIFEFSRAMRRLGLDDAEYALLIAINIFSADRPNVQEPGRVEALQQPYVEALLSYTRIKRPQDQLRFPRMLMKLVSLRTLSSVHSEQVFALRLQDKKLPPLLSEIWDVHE

[11] = Luminescence Cell-Based Dose Response HTS to Identify Activators of Luciferase Translation or Activity in H4 […] Cells. [Related pubchem assays: 1829 (Project Summary), 1814 (Primary HTS)]; type: functional
[12] = Luminescence Cell-Based Dose Confirmation to Identify Activators of 5'UTR Stem-Loop Driven Alpha-Synuclein mRNA Translation in H4 Neuroglioblastoma Cells. [Related pubchem assays: 1829 (Project Summary), 1814 (Primary HTS)]; type: functional
[13] = biological target: E3 ubiquitin-protein ligase Mdm2 (Homo sapiens, UniProt Q00987); test: enhancers of MDM2-luciferase reporter signal, concentration-effect titration, project on inhibitors of MDM2 ubiquitin ligase, cellular assay, luminescent readout, 384-well plate format (AID 1394); type: functional;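 also: MDM2 E3 inhibitors raise luminescence so EC50 is for signal enhancement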
Sequence of E3 ubiquitin-protein ligase Mdm2 (Q00987 whole entry): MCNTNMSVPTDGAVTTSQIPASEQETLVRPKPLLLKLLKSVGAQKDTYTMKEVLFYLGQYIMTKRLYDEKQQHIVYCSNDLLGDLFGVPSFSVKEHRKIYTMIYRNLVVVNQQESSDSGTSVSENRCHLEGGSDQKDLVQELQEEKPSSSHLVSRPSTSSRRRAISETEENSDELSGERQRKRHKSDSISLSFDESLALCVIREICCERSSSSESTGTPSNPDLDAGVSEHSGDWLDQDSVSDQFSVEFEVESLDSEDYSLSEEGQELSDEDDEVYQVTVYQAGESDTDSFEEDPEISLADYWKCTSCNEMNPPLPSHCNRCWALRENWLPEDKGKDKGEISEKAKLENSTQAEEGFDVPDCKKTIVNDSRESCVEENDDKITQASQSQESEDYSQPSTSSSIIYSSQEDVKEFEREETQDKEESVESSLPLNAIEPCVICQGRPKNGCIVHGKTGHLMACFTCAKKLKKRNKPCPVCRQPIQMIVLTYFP

[14] = biological target: T4, Mannose-6-phosphate isomerase (Homo sapiens, UniProt P34949); test: inhibitors of human PMI, primary screen, biochemical, fluorescence intensity, coupled assay (AID 1209)
T4 sequence (P34949 whole entry): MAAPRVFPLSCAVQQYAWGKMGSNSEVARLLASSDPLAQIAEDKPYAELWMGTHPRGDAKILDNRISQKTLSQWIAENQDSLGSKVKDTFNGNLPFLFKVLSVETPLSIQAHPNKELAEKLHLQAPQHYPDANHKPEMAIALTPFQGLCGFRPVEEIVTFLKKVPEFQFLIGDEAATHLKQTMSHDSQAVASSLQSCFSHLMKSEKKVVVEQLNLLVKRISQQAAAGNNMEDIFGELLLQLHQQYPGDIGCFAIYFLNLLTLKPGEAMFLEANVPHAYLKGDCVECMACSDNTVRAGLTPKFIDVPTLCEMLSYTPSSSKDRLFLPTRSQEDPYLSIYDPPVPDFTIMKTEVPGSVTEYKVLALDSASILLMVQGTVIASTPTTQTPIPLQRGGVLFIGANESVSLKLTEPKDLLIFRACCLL

[15] = biological target: Heat shock 70 kDa protein 1A (Homo sapiens, UniProt P0DMV8); test: Hsp70 inhibitors, SAR follow-up, biochemical, fluorescence polarization (AID 1072)
Sequence of Heat shock 70 kDa protein 1A (P0DMV8 whole entry): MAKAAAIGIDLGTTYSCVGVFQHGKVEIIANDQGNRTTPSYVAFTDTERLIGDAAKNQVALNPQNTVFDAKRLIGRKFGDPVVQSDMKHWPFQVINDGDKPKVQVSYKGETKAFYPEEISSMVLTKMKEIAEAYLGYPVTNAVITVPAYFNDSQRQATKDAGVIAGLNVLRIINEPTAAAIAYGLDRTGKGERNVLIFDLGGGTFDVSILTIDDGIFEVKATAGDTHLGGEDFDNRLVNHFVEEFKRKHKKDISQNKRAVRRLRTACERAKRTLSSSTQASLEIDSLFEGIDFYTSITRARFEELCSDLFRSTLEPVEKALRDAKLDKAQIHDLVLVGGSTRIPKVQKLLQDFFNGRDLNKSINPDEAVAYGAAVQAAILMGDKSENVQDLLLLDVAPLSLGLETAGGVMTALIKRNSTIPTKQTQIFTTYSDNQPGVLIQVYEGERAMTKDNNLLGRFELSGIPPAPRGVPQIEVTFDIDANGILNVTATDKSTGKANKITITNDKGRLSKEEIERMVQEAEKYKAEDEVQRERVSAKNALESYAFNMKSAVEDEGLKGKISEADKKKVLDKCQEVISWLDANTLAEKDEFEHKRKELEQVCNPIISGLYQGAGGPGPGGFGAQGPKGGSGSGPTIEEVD

[16] = biological target: Heat shock cognate 71 kDa protein (Homo sapiens, UniProt P11142); test: In Vitro Hsc70 Dose Response Fluorescence Polarization Assay. [Related pubchem assays: 1072 ]
Sequence of Heat shock cognate 71 kDa protein (P11142 whole entry): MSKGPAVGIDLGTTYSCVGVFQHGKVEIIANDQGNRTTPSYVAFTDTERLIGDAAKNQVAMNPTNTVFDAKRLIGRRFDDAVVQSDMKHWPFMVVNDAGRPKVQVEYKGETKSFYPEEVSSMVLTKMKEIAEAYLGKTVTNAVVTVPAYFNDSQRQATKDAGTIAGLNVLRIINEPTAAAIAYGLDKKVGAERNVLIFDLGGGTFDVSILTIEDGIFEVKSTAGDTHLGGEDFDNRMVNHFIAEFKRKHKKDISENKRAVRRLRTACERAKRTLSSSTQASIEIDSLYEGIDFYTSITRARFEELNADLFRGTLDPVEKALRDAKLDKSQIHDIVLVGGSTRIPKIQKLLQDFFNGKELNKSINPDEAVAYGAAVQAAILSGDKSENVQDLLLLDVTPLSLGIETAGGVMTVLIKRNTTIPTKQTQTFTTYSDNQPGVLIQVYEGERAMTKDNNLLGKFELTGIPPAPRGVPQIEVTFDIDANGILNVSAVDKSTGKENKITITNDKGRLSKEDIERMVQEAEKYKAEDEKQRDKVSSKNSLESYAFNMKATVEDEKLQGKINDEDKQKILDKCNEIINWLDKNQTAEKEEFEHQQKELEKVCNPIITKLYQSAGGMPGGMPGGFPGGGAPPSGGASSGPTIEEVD

Cytochrome P450 2C19 = Cytochrome P450 2C19 (Homo sapiens, UniProt P33261); test: qHTS Assay for Inhibitors and Substrates of Cytochrome P450 2C19. [Related pubchem assays: 410 ]; type: ADME; conditions: read-out: Potency
Sequence of Cytochrome P450 2C19 (P33261 whole entry): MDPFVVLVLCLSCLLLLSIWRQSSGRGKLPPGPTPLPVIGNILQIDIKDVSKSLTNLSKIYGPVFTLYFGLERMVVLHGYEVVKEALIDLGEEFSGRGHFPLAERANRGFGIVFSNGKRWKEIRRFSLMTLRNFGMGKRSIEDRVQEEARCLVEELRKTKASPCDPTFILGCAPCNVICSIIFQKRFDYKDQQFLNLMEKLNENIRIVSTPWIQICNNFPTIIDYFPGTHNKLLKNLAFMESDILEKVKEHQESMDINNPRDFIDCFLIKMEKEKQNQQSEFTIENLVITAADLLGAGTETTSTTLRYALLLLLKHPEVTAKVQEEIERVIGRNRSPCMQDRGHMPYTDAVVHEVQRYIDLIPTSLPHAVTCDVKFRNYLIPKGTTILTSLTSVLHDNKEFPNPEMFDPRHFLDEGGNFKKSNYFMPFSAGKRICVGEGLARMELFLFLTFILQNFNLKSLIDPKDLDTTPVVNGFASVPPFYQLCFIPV

Cytochrome P450 3A4 = Cytochrome P450 3A4 (Homo sapiens, UniProt P08684); conditions: Potency;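 also: confirmatory qHTS run detecting inhibitors and substrates of CYP3A4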
Sequence of Cytochrome P450 3A4 (P08684 whole entry): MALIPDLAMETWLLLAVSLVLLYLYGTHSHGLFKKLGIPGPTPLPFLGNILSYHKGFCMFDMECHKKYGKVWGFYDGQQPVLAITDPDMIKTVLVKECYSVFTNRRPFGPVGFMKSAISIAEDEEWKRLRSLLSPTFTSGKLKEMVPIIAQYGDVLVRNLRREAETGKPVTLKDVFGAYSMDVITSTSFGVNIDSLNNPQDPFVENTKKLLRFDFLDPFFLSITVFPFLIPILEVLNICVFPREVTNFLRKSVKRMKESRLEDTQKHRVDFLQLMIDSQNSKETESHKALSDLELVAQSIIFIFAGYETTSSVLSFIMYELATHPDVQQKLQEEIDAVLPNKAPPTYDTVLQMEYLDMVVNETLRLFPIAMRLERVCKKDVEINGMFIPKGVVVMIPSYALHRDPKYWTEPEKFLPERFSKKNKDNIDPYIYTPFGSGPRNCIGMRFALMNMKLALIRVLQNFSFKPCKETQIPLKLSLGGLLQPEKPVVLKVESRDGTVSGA

Nonstructural protein 1 = Nonstructural protein 1 (Influenza A virus, UniProt Q194T2); type: functional, Influenza A virus (A/California/07/2009(H1N1))
Sequence of Nonstructural protein 1 (Q194T2 whole entry): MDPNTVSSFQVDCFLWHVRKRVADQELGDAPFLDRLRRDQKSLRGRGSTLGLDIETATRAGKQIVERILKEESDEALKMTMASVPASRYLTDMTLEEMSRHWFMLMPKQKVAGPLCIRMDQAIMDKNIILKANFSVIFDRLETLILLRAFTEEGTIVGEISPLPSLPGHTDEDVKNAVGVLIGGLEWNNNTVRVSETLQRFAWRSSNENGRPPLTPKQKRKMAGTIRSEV

[17] = biological target: T5, Alkaline phosphatase, tissue-nonspecific isozyme (Homo sapiens, UniProt P05186)
T5 sequence (P05186 whole entry): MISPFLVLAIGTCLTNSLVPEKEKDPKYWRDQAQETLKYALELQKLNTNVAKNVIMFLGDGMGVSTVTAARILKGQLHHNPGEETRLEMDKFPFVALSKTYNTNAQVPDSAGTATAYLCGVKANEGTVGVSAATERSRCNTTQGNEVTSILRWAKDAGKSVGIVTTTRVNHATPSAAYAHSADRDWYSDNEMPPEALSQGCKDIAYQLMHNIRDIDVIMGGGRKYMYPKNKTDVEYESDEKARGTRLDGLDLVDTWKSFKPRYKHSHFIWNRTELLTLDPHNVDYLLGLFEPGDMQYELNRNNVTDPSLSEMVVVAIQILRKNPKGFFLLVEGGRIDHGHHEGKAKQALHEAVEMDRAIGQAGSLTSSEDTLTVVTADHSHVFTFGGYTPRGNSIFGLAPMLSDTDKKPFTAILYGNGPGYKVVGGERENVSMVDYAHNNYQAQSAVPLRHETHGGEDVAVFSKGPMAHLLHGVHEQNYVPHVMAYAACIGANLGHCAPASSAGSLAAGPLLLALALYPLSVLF

Sequence of Ephrin type-A receptor 4 (Q03137 whole entry): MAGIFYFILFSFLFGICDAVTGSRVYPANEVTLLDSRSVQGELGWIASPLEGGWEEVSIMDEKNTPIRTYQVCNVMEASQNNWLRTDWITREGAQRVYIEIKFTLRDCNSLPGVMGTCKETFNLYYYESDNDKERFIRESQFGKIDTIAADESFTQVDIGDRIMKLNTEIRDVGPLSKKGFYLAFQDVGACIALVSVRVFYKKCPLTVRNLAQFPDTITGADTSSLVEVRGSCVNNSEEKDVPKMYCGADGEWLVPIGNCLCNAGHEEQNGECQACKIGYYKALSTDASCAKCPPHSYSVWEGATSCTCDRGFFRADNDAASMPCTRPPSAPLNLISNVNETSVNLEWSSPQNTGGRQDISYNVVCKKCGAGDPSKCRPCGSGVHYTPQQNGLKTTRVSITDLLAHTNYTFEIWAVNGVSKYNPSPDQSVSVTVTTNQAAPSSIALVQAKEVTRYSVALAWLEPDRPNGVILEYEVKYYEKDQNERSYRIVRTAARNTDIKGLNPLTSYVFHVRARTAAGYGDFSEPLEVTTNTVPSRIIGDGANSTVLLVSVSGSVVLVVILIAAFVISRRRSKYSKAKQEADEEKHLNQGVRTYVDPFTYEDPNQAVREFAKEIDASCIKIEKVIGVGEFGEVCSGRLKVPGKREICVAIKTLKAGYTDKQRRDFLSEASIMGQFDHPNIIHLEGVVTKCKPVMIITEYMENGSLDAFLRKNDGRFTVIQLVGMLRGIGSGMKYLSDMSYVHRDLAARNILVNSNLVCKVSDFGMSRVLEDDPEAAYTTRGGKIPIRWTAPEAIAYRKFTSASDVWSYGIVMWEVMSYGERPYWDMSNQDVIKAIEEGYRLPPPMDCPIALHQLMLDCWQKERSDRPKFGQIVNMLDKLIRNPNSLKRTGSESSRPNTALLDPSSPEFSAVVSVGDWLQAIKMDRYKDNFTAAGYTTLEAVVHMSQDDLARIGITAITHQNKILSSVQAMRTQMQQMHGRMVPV
Sequence of Cytochrome P450 2C9 (P11712 whole entry, the tested form may be a part): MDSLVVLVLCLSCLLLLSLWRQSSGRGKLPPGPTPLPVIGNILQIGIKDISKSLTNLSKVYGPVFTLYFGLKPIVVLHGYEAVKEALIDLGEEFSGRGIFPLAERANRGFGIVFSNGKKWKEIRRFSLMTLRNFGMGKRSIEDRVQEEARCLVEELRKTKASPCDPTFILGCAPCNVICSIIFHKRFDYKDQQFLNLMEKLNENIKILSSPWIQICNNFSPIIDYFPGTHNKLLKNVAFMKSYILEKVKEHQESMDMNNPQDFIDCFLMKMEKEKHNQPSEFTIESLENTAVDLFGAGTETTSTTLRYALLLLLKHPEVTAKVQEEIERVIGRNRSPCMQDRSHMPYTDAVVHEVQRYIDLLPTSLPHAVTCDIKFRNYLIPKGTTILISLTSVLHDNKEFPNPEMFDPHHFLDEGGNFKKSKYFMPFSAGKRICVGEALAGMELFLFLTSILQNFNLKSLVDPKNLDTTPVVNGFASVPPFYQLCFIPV

## COc1ccc2sc3ccccc3c(=O)c2c1OC
Ephrin type-A receptor 4
  IC50: > 100 µM (not active)
Cytochrome P450 2C9
  AC50: 28.2 µM (inconclusive)

## O=S(=O)(Nc1nc2ccccc2nc1Nc1cccc(S(=O)(=O)N2CCCCC2)c1)c1ccccc1
[1]
  AC50: 12 µM (active)
[2]
  AC50: 8.16 µM (active)
[3]
  IC50: 5.7 µM (active)
Aminopeptidase N
  IC50: 91.9 µM (active)
[4]
  AC50: 23.9 µM (active)
[5]
  IC50: 12 µM (active)

## COc1ccc(C(=O)/C=C/c2ccc(OCc3ccccc3)cc2)cc1CSCC(=O)O
[6]
  AC50: 5.79 µM (active)
[3]
  IC50: 42.8 µM (active)

## O=C(Nc1ccccc1)Nc1cccc2nsnc12
cells
  EC50: > 67.5 µM (inactive)
[7]
  EC50: 0.452 µM (active)
[8]
  EC50: 0.739 µM (active)
H4
  EC50: 1.37 µM (active)
[9]
  EC50: 0.19 µM (active)
[10]
  EC50: > 67.5 µM (inactive)
[11]
  EC50: < 0.1 µM (inconclusive)
[12]
  EC50: > 12 µM (not active)

## Cn1c(=O)[nH]c(=O)c2c1nc(Br)n2CCCc1ccccc1
[13]
  EC50: 46.5 µM (not active)

## Cc1cccc(NC(=O)C2CC(=O)n3cnnc3S2)c1 (centres undefined)
[14]
  IC50: > 50 µM (not active)

## O=C1/C(=C\c2ccc(-c3ccccc3Cl)o2)SC(=S)N1CC1CCCO1 (centres undefined)
Ephrin type-A receptor 4
  IC50: 0.4 µM (active)

## O=C(Nc1ccc(Cl)cc1)c1ccc(-n2cccn2)c([N+](=O)[O-])c1
[13]
  EC50: 8.84 µM (not active)

## O=C1C=C2CC3(O)CCc4c(ccc(O)c4O)C3=C2C=C1O (centres undefined)
[15]
  IC50: 34.2 µM (active)
[16]
  IC50: > 100 µM (not active)

## CC1CCN(C(=O)CSc2nc3ccccc3s2)CC1
[7]
  EC50: 2.07 µM (active)
[8]
  EC50: 0.482 µM (active)
H4
  EC50: 20.3 µM (active)
[9]
  EC50: 0.185 µM (active)
[11]
  EC50: < 0.1 µM (inconclusive)
[12]
  EC50: 1.69 µM (active)

## COC(=O)NC(c1cccs1)C(C(C)=O)C(=O)OC (centres undefined)
Cytochrome P450 2C19
  AC50: 3.98 µM (inconclusive)
Cytochrome P450 3A4
  AC50: 3.98 µM (inconclusive)

## Cc1c(C(=O)N(C)C)sc2[nH]c(-c3ccccn3)nc(=O)c12
Nonstructural protein 1
  IC50: 13.1 µM (active)
[17]
  EC50: 63.6 µM (not active)
